Reference: patent US20180021270A1, “METHODS FOR THE TREATMENT OF CANCER USING COENZYME Q10 IN COMBINATION WITH IMMUNE CHECKPOINT MODULATORS” (Berg LLC, priority 2016, published 2018)

Assays:
[1] = test system: T cell surface proteins in buffy coat; assay: Proteomic analysis of buffy coat samples from cancer patients administered Coenzyme Q10; assay type: in vivo, human; conditions: patients with solid tumors, intravenous 4% Coenzyme Q10 nanosuspension; start vs end of treatment
Protocol: The ability of Coenzyme Q10 to modulate immune function in cancer patients was investigated by characterizing the molecular signature in buffy coats of patients administered Coenzyme Q10 for the treatment of solid tumors. A sterile Coenzyme Q10 (Ubidecarenone, USP) nanosuspension was administered intravenously to patients with solid tumors. Coenzyme Q10 was evaluated both as a monotherapy and in combination with standard chemotherapeutic agents (e.g. gemcitabine, 5-fluorouracil and docetaxel). The Coenzyme Q10 was provided as a 4% coenzyme Q10 nanosuspension formulation as described in WO 2011/112900, the entire contents of which are expressly incorporated herein by reference.
The effect of Coenzyme Q10 treatments on protein expression in immune cells within the buffy coat was evaluated. Furthermore, it was determined whether the proteins identified were known to be on the surface of T cells. To complete this analysis, buffy coat samples were subjected to shot gun global proteomic analysis, and a comprehensive list of proteins were generated for samples obtained from 25 patients being treated for solid tumors with Coenzyme Q10 as described above.
For proteomic analysis, data from two publically available T cell proteomic studies were combined. See Graessel A. et al., 2015, Molecular and Cellular Proteomics 14: 2085-2102; and Loyet K. M. et al., 2005, Proteome Research 4: 400, the entire contents of each of which are expressly incorporated herein by reference. Both studies defined the set of proteins on the surface of naïve and activated T cells to generate a working list of proteins potentially found on the T cell surface. This list (>600 proteins) was compared to the total proteome of the buffy coat (>2000 proteins) from twenty-five patients treated with Coenzyme Q10 as monotherapy.
A total of 62 common proteins shared between T cell surface proteome and the buffy coat proteome were identified. The relative change in protein levels (on the y-axis) represents the slope of the line derived from the linear regression of the level of each protein at the start of Coenzyme Q10 treatment versus the level at the end of Coenzyme Q10 treatment. FIG. 1 provides a schematic of the plot slope of linear regression representing the change in protein expression over time.

CTLA-4 = assay: Inhibitory receptor surface expression on T cells within PBMCs; assay type: cell-based, human; conditions: PHA-stimulated T cells, 24 hours, dose dependent
Protocol: (§1) Expression of the inhibitory receptor proteins PD-1 and CTLA-4 on the surface of T cells within PBMCs was also determined. The cells were treated with Coenzyme Q10 for 24 hours. Expression of immune checkpoint receptors was measured by staining cells with phenotypic markers for CD3/CD8, or CD3/CD4 in combination with antibodies against PD-1 or CTLA-4. Live cells were identified as 7 AAD negative lymphocytes followed by T cell phenotype characterization of total CD3+ T cells, cytotoxic T cells, or helper T cells. PD-1 or CTLA-4 cell surface expression was measured as mean fluorescence intensity on live T cells. Cells from three donors were tested. As shown in FIGS. 20A and 20B, Coenzyme Q10 decreased PD-1 and CTLA-4 expression on the surface of PHA-stimulated T cells in a dose dependent manner.

PD-1 = assay: as above; assay type: cell-based, human; conditions: PHA-stimulated T cells, 24 hours, dose dependent
Protocol: as §1

[2] = test system: PD-1 on CD3 positive T cells within Balb/c PBMCs; assay: PD-1 surface expression on murine CD3 positive T cells; assay type: cell-based, mouse; conditions: 0-800 μM, 24 hours, mean fluorescence intensity
Protocol: PD-1 surface expression on CD3 positive T cells within PHA stimulated or unstimulated Balb/c PBMCs was also evaluated. Cells were treated with Coenzyme Q10 (0, 12.5, 50, 200, 400 or 800 μM) for 24 hours and PD-1 expression was determined by gating live CD3 positive T cells. Mean fluorescence intensity values were evaluated in histogram plots for PD-1. Two experiments using two different pools of Balb/c PBMCs and one experiment using C57B1/6 PBMCs were conducted.

[3] = test system: murine Pan02 pancreatic cancer cells; assay: Pan02 pancreatic tumor growth in C57BL/6 mice; assay type: in vivo, mouse; conditions: Day 21
Protocol: C57BL/6 mice were implanted with murine Pan02 pancreatic cancer cells and treated with different doses of Coenzyme Q10 to evaluate the effects of Coenzyme Q10 on tumor growth. C57B1/6 female mice were inoculated with 3×10^7 Pan02 cells. When tumors reached a mean volume of 100 mm^3, animals were randomized into four groups and treated with vehicle control or Coenzyme Q10 (25, 50 or 100 mg/kg) by intraperitoneal (i.p.) injection twice daily for 21 days. Tumor volume was measured twice per week.

[4] = Body weight of C57BL/6 mice with Pan02 tumors; assay type: in vivo, mouse; conditions: 25, 50 or 100 mg/kg i.p. twice per day for 21 days
Protocol: The body weight of C57BL/6 mice implanted with murine Pan02 pancreatic cancer cells and treated with Coenzyme Q10 was also evaluated. Tumors with mean volume of 100 mm^3 were treated twice per day with vehicle control or Coenzyme Q10 at 25, 50 or 100 mg/kg administered intraperitoneally for 21 days. Body weight was measured every two days for the first 5 days, and then twice per week.

[5] = test system: tumor infiltrating lymphocytes (TILs) in murine Pan02 pancreatic tumors; assay: CD8 IHC pathological scoring of tumor infiltrating lymphocytes in Pan02 tumors; assay type: in vivo, mouse
Protocol: Tumor samples from mice with murine Pan02 tumors treated with different doses of Coenzyme Q10 were analyzed for the presence of tumor infiltrating lymphocytes (TILs). C57B1/6 female mice were inoculated with 3×10^7 Pan02 cells. When tumors reached a mean volume of 100 mm^3, animals were randomized into four groups and treated with vehicle control or Coenzyme Q10 (25, 50 or 100 mg/kg) twice daily for 21 days. At the end of the study, tumors were removed and subjected to IHC analysis for Tumor Infiltrating Lymphocytes (TILs) with CD8 staining. All slides were subjected to a pathological scoring. […] As shown in FIGS. 29A and 29B, Coenzyme Q10 increased TILs in a dose-dependent manner.

[6] = 25 mg/kg twice daily for 21 days
[7] = 50 mg/kg twice daily for 21 days
[8] = 100 mg/kg twice daily for 21 days

## COC1=C(OC)C(=O)C(C/C=C(\C)CC/C=C(\C)CC/C=C(\C)CC/C=C(\C)CC/C=C(\C)CC/C=C(\C)CC/C=C(\C)CC/C=C(\C)CC/C=C(\C)CCC=C(C)C)=C(C)C1=O [Coenzyme Q10]
[1]
  Expression of CD8B in buffy coat: downregulated
  Expression of CD247 in buffy coat: downregulated
  Expression of CFL1 in buffy coat: upregulated
  Expression of S100A8 in buffy coat: upregulated
CTLA-4
  CTLA-4 expression on the surface of T cells (mean fluorescence intensity): decreased
PD-1
  PD-1 expression on the surface of T cells (mean fluorescence intensity): decreased
[2]
  PD-1 expression of PD-1 negative gated CD3+ T cells: does not affect
  PD-1 levels on PD-1 high expressing gated CD3+ T cells: increased
[3]; 25 mg/kg i.p. twice daily, p=0.2583 to control
  Percentage of Tumor Growth Inhibition: 7%
[3]; 50 mg/kg i.p. twice daily, p=0.1255 to control
  Percentage of Tumor Growth Inhibition: 19%
[3]; 100 mg/kg i.p. twice daily, p=0.0529 to control
  Percentage of Tumor Growth Inhibition: 26%
[4]
  Effect on body weight: no significant effect
[5]; [6]
  Percentage of mice with TIL levels Higher than Control: 40%
  Percentage of mice with TIL levels Lower than Control: 10%
  Percentage of mice with TIL levels Similar to Control: 50%
[5]; [7]
  Percentage of mice with TIL levels Higher than Control: 42.9%
  Percentage of mice with TIL levels Lower than Control: 28.6%
  Percentage of mice with TIL levels Similar to Control: 28.6%
[5]; [8]
  Percentage of mice with TIL levels Higher than Control: 55.2%
  Percentage of mice with TIL levels Lower than Control: 33.3%
  Percentage of mice with TIL levels Similar to Control: 11.1%
[5]; 25, 50 or 100 mg/kg twice daily for 21 days, dose-dependent
  Tumor infiltrating lymphocytes (TILs) in tumors: increased
